# Laboratory results taken from the NIST ThermoML archive (doi:10.1021/je034228o).
# Numbers after ± are expanded uncertainties.
# Conditions: Crystal; DTA
row,Normal melting temperature [°C],SMILES
1,76.1 ± 0.5,CC(C)Cc1ccc(C(C)C(=O)O)cc1 (configuration not stated) [ibuprofen]
2,51.1 ± 0.5,CC(C)Cc1ccc([C@H](C)C(=O)O)cc1 [(S)-2-(4-isobutylphenyl)propanoic acid]
